Measurements: patent US11098038B2, “Imidazole-based anticancer agents and derivatives thereof, and methods of making and using same” (The University of Toledo, priority 2017, dated 2021)

Experiments:
[1] = tested on: LOX IMVI; test: NCI 60 screen, LOX IMVI; assay type: cell-based; details: Homo sapiens, Melanoma
Procedure: (§1) The compounds synthesized were tested at the National Cancer Institute (NCI) for anti-proliferative activity in the 60 human tumor cell line assay.

[2] = tested on: UACC-62; test: NCI 60 screen, UACC-62; assay type: cell-based; details: Homo sapiens, Melanoma
Procedure: as §1

[3] = tested on: UACC-257; test: NCI 60 screen, UACC-257; assay type: cell-based; details: Homo sapiens, Melanoma
Procedure: as §1

[4] = tested on: HCT-116; test: NCI 60 screen, HCT-116; assay type: cell-based; details: Homo sapiens, Colon
Procedure: as §1

[5] = tested on: MDA-MB-468; test: NCI 60 screen, MDA-MB-468; assay type: cell-based; details: Homo sapiens, Breast
Procedure: as §1

[6] = tested on: NCI-460; test: NCI 60 screen, NCI-460; assay type: cell-based; details: Homo sapiens, Non-Small Cell Lung
Procedure: as §1

[7] = tested on: UO-31; test: NCI 60 screen, UO-31; assay type: cell-based; details: Homo sapiens, Renal
Procedure: as §1

[8] = tested on: DU-145; test: NCI 60 screen, DU-145; assay type: cell-based; details: Homo sapiens, Prostatic
Procedure: as §1

[9] = tested on: HCC-2998; test: NCI 60 screen, HCC-2998; assay type: cell-based; details: Homo sapiens, Colon
Procedure: as §1

[10] = tested on: SK-OV-3; test: NCI 60 screen, SK-OV-3; assay type: cell-based; details: Homo sapiens, Ovarian
Procedure: as §1

[11] = tested on: RXF393; test: NCI 60 screen, RXF393; assay type: cell-based; details: Homo sapiens, RXF 393, Renal
Procedure: as §1

[12] = tested on: KM12; test: NCI 60 screen, KM12; assay type: cell-based; details: Homo sapiens, Colon
Procedure: as §1

[13] = tested on: 786-0; test: NCI 60 screen, 786-0; assay type: cell-based; details: Homo sapiens, Renal
Procedure: as §1

[14] = tested on: SK-MEL-2; test: NCI 60 screen, SK-MEL-2 (first line); assay type: cell-based; details: Homo sapiens; Melanoma, SK-MEL-2 (first of two lines so named, r37)
Procedure: as §1

[15] = tested on: MALME-3M; test: NCI 60 screen, MALME-3M; assay type: cell-based; details: Homo sapiens, Melanoma
Procedure: as §1

[16] = tested on: NCI-H23; test: NCI 60 screen, NCI-H23; assay type: cell-based; details: Homo sapiens, Non-Small Cell Lung
Procedure: as §1

[17] = tested on: OVCAR-5; test: NCI 60 screen, OVCAR-5; assay type: cell-based; details: Homo sapiens, Ovarian
Procedure: as §1

[18] = tested on: SF-268; test: NCI 60 screen, SF-268; assay type: cell-based; details: Homo sapiens, CNS
Procedure: as §1

[19] = tested on: NCI/ADR-RES; test: NCI 60 screen, NCI/ADR-RES; assay type: cell-based; details: Homo sapiens, Ovarian
Procedure: as §1

[20] = tested on: SR; test: NCI 60 screen, SR; assay type: cell-based; details: Homo sapiens, Leukemia
Procedure: as §1

[21] = tested on: MCF7; test: NCI 60 screen, MCF7; assay type: cell-based; details: Homo sapiens, Breast
Procedure: as §1

[22] = tested on: MDA-MB-231/ATCC; test: NCI 60 screen, MDA-MB-231/ATCC; assay type: cell-based; details: Homo sapiens, Breast
Procedure: as §1

[23] = tested on: SK-MEL-5; test: NCI 60 screen, SK-MEL-5; assay type: cell-based; details: Homo sapiens, Melanoma
Procedure: as §1

[24] = tested on: SNB-75; test: NCI 60 screen, SNB-75; assay type: cell-based; details: Homo sapiens, CNS
Procedure: as §1

[25] = tested on: A498; test: NCI 60 screen, A498; assay type: cell-based; details: Homo sapiens, Renal
Procedure: as §1

[26] = tested on: SF-539; test: NCI 60 screen, SF-539; assay type: cell-based; details: Homo sapiens, CNS
Procedure: as §1

[27] = tested on: SN12C; test: NCI 60 screen, SN12C; assay type: cell-based; details: Homo sapiens, Renal
Procedure: as §1

[28] = tested on: ACHN; test: NCI 60 screen, ACHN; assay type: cell-based; details: Homo sapiens, Renal
Procedure: as §1

[29] = tested on: OVCAR-8; test: NCI 60 screen, OVCAR-8; assay type: cell-based; details: Homo sapiens, Ovarian
Procedure: as §1

[30] = tested on: HT29; test: NCI 60 screen, HT29; assay type: cell-based; details: Homo sapiens, HT-29, Colon
Procedure: as §1

[31] = tested on: HOP-62; test: NCI 60 screen, HOP-62; assay type: cell-based; details: Homo sapiens, Non-Small Cell Lung
Procedure: as §1

[32] = tested on: HL-60(TB); test: NCI 60 screen, HL-60(TB); assay type: cell-based; details: Homo sapiens, Leukemia
Procedure: as §1

[33] = tested on: MOLT-4; test: NCI 60 screen, MOLT-4; assay type: cell-based; details: Homo sapiens, Leukemia
Procedure: as §1

[34] = tested on: SNB-19; test: NCI 60 screen, SNB-19; assay type: cell-based; details: Homo sapiens, CNS
Procedure: as §1

[35] = tested on: PC-3; test: NCI 60 screen, PC-3; assay type: cell-based; details: Homo sapiens, Prostatic
Procedure: as §1

[36] = tested on: T-47D; test: NCI 60 screen, T-47D; assay type: cell-based; details: Homo sapiens, T47D, Breast
Procedure: as §1

[37] = tested on: NCI-H226; test: NCI 60 screen, NCI-H226; assay type: cell-based; details: Homo sapiens, Non-Small Cell Lung
Procedure: as §1

[38] = tested on: HCT15; test: NCI 60 screen, HCT15; assay type: cell-based; details: Homo sapiens, HCT-15, Colon
Procedure: as §1

[39] = tested on: CAKI-1; test: NCI 60 screen, CAKI-1; assay type: cell-based; details: Homo sapiens, Renal
Procedure: as §1

[40] = tested on: TK-10; test: NCI 60 screen, TK-10; assay type: cell-based; details: Homo sapiens, Renal
Procedure: as §1

[41] = tested on: IGROV1; test: NCI 60 screen, IGROV1; assay type: cell-based; details: Homo sapiens, IGROV-1, Ovarian
Procedure: as §1

[42] = tested on: HOP-92; test: NCI 60 screen, HOP-92; assay type: cell-based; details: Homo sapiens, Non-Small Cell Lung
Procedure: as §1

[43] = tested on: OVCAR-3; test: NCI 60 screen, OVCAR-3; assay type: cell-based; details: Homo sapiens, Ovarian
Procedure: as §1

[44] = tested on: RPMI-8226; test: NCI 60 screen, RPMI-8226; assay type: cell-based; details: Homo sapiens, Leukemia
Procedure: as §1

[45] = tested on: HS 578T; test: NCI 60 screen, HS 578T; assay type: cell-based; details: Homo sapiens, Breast
Procedure: as §1

[46] = tested on: SF-295; test: NCI 60 screen, SF-295; assay type: cell-based; details: Homo sapiens, CNS
Procedure: as §1

[47] = tested on: A549/ATCC; test: NCI 60 screen, A549/ATCC; assay type: cell-based; details: Homo sapiens, Non-Small Cell Lung
Procedure: as §1

[48] = tested on: OVCAR-4; test: NCI 60 screen, OVCAR-4; assay type: cell-based; details: Homo sapiens, Ovarian
Procedure: as §1

[49] = tested on: NCI-322M; test: NCI 60 screen, NCI-322M; assay type: cell-based; details: Homo sapiens, Non-Small Cell Lung
Procedure: as §1

[50] = tested on: BT-549; test: NCI 60 screen, BT-549; assay type: cell-based; details: Homo sapiens, Breast
Procedure: as §1

[51] = tested on: CCRF-CEM; test: NCI 60 screen, CCRF-CEM; assay type: cell-based; details: Homo sapiens, Leukemia
Procedure: as §1

[52] = tested on: NCI-H522; test: NCI 60 screen, NCI-H522; assay type: cell-based; details: Homo sapiens, Non-Small Cell Lung
Procedure: as §1

[53] = tested on: MDA-MB-435; test: NCI 60 screen, MDA-MB-435; assay type: cell-based; details: Homo sapiens, Melanoma
Procedure: as §1

[54] = tested on: EKVX; test: NCI 60 screen, EKVX; assay type: cell-based; details: Homo sapiens, Non-Small Cell Lung
Procedure: as §1

[55] = tested on: COLO 205; test: NCI 60 screen, COLO 205; assay type: cell-based; details: Homo sapiens, Colon
Procedure: as §1

[56] = tested on: SK-MEL-2; test: NCI 60 screen, SK-MEL-2 (second line); assay type: cell-based; details: Homo sapiens; Melanoma, SK-MEL-2 (second of two lines so named, r38)
Procedure: as §1

[57] = tested on: U251; test: NCI 60 screen, U251; assay type: cell-based; details: Homo sapiens, U-251, CNS
Procedure: as §1

[58] = tested on: SW-620; test: NCI 60 screen, SW-620; assay type: cell-based; details: Homo sapiens, Colon
Procedure: as §1

Cc1ccc(NC(=O)Cc2ccc(/C=C/C(=O)c3ncc[nH]3)cc2)cc1 [Compound 20, (E)-2-(4-(3-(1H-imidazol-2-yl)-3-oxoprop-1-en-1-yl)phenyl)-N-(p-tolyl)acetamide]
GI50 [1]: 1.29 µM
GI50 [2]: 8.29 µM
GI50 [3]: 25 µM
GI50 [4]: 3.28 µM
GI50 [5]: 3.3 µM
GI50 [6]: 6.32 µM
GI50 [7]: 3.01 µM
GI50 [8]: 4.56 µM
GI50 [9]: 6.73 µM
GI50 [10]: 12.8 µM
GI50 [11]: 7.68 µM
GI50 [12]: 3.09 µM
GI50 [13]: 4.28 µM
GI50 [14]: 18.1 µM
GI50 [15]: 25 µM
GI50 [16]: 5.85 µM
GI50 [17]: 6.84 µM
GI50 [18]: 5.32 µM
GI50 [19]: 6.73 µM
GI50 [20]: 0.99 µM
GI50 [21]: 1.15 µM
GI50 [22]: 9.46 µM
GI50 [23]: 18.3 µM
GI50 [24]: 7 µM
GI50 [25]: 19.9 µM
GI50 [26]: 4.76 µM
GI50 [27]: 5.91 µM
GI50 [28]: 6.51 µM
GI50 [29]: 7.24 µM
GI50 [30]: 0.955 µM
GI50 [31]: 5.24 µM
GI50 [32]: 5.88 µM
GI50 [33]: 5.33 µM
GI50 [34]: 6.65 µM
GI50 [35]: 7.1 µM
GI50 [36]: 6.47 µM
GI50 [37]: 9.59 µM
GI50 [38]: 2.01 µM
GI50 [39]: 9.63 µM
GI50 [40]: 7.93 µM
GI50 [41]: 6.47 µM
GI50 [42]: 1.85 µM
GI50 [43]: 1.67 µM
GI50 [44]: 1.79 µM
GI50 [45]: 13.6 µM
GI50 [46]: 7.9 µM
GI50 [47]: 9.14 µM
GI50 [48]: 10.4 µM
GI50 [49]: 6.06 µM
GI50 [50]: 6.42 µM
GI50 [51]: 4.67 µM
GI50 [52]: 4.54 µM
GI50 [53]: 5.68 µM
GI50 [54]: 1.35 µM
melting point: 218.5 °C
GI50 [55]: 7.27 µM
GI50 [56]: 11.5 µM
GI50 [57]: 1.59 µM
GI50 [58]: 5.22 µM
